# Test results taken from patent US20180238860A1, “INDIVIDUAL METHOD PREDICTIVE OF THE DNA-BREAKING GENOTOXIC EFFECTS OF CHEMICAL OR BIOCHEMICAL AGENTS” (priority 2015, published 2018).
# Assays:
# humans exposed = details: cited from earlier work
# [1] = test system: pH2AX nuclear foci (DNA double-strand breaks); assay: Single toxicity scale: reference concentration Cref and risk group prediction from NpH2AX(24 h); assay type: cell-based, human; details: for Reference concentration Cref: NpH2AX(24 h) < 2; for Prediction based on algorithm: concentration above which “Group III” risk: NpH2AX(24 h) > 8
# Method: (i) if the reference concentration has not previously been determined by the chemical or biochemical agent to be studied, a cell sample is prepared by dispersion and/or amplification of so-called reference cells (sensitivity group I); a plurality of concentrations within a broad concentration range of said breaking agent (said concentration range ranging for example from nM to mM) is applied for a predetermined period of time (preferably 24 hours) on this cell sample; pH2AX immunofluorescence is performed with DAPI counterstaining which also enables on the same cell sample the analysis of micronuclei for all the concentrations applied.
# (ii) Either the mean number of nuclear foci observed with the marker pH2AX at the observation times t and at the concentration C (this mean number being referred to as NpH2AX(t, C)), or the mean number of micronuclei per 100 cells at the observation times t and at the concentration C (this mean number being referred to as NMN(t, C)), or the standard error a corresponding to the error committed on these respective measurements which must be performed on at least 50 nuclei once (Gaussian standard error) or 3 independent experiments of 50 nuclei (standard error of the mean).
# (iii) The so-called reference concentration Cref is the concentration giving:
# NpH2AX(24 h,Cref)+2σ=2 or indeed NMN(24 h,Cref)+2σ=2%;
# If for the cell sample NpH2AX(24 h, Cref)<=2 or NMN(24 h, Cref)<=0.5%, preferably NMN(24 h, Cref)<=1% or even more preferentially NMN(24 h, Cref)<=2%, then the genotoxic risk is considered to be low or described as “Group I”
# The experimental data presented in table 4 above were used to determine the reference concentration Cref particularly for Pb(NO3)2 (Cref<1 μM) and CdCl2 (Cref=10 μM).
# Table 5 presents numerical examples of correspondence between the single toxicity scale according to the invention and the corresponding clinical signs.
# HMEC cells [2] = assay: Micronuclei per 100 cells 24 h after contacting, Table 4 lower part (HMEC); assay type: cell-based, human; details: line cell blank (below Hasp)
# Outline: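 Patient-derived cell lines, non-transformed, grown on coverslips at 37 °C and exposed to DNA-breaking agents at various concentrations alongside untreated controls. After 24 h, cells fixed in paraformaldehyde/sucrose, permeabilized, and counterstained with DAPI; micronuclei counted as mean per 100 cells.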
# HMEC cells [3] = assay: pH2AX foci 24 h after contacting, Table 4 lower part (HMEC endothelial cells); assay type: cell-based, human; details: line cell blank (below Hasp), 24 hours after contacting
# Outline: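 Cells on glass coverslips exposed at 37° C to the DNA-breaking agent at concentration C; unexposed coverslips give spontaneous level. After 24 h, fixed in 3% paraformaldehyde/2% sucrose, permeabilized, stained with anti-pH2AX (1:800) and FITC/TRITC secondaries plus DAPI; mean nuclear foci counted by immunofluorescence on at least 50 G0/G1 cells.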
# 04PSL cells [4] = assay: pH2AX foci immunofluorescence 24 h after contacting, 04PSL patient skin cell line; assay type: cell-based, human; details: for pH2AX: 24 hours after contacting (Table 3); for pH2AX(24) + 2xSEM: 24 hours; for pH2AX(24 h): 24 hours after contacting (Table 1)
# Method: (§1) the cells are fixed in 3% paraformaldehyde and 2% sucrose for 15 minutes at ambient temperature and permeabilized in 20 mM HEPES buffer solution (4-(2-hydroxyethyl)-1-piperazine ethane sulfonic acid) at pH 7.4, 50 mM NaCl, 3 mM MgCl2, 300 mM sucrose, 0.5% Triton X-100 (a non-ionic surfactant having the formula t-Oct-C6H4-(OCH2CH2)×OH where x=9-10, CAS No. 9002-93-1, supplied for example by Sigma Aldrich) for 3 minutes. The glass coverslips are then washed in phosphate buffer saline (known as the acronym PBS) before immunological staining. The incubation took place for 40 min at 37° C. in PBS supplemented with 2% bovine serum albumin (known as the acronym BSA or fraction V, supplied for example by Sigma Aldrich) and was followed by a wash with PBS. Anti-pH2AX primary antibodies are used at a concentration of 1:800. The incubations with anti-mouse FITC or anti-rabbit TRITC secondary antibodies (1:100, supplied by Sigma Aldrich) were performed at 37° C. in 2% BSA for 20 minutes. Glass coverslips were treated with Vectashield™ containing DAPI (4,6-Diamidino-2-phenylindole) to label the nucleus. Staining with DAPI also makes it possible, indirectly, to determine the number of cells in phase G1 (nuclei with homogenous DAPI staining), in phase S (nuclei with numerous pH2AX foci), in phase G2 (nuclei with heterogeneous DAPI staining) and metaphases (visible chromosomes).
# A skin cell sample from a patient was sampled by biopsy via the “skin punch” method known to those skilled in the art. The cell sample was then placed in DMEM medium+20% sterile fetal calf serum. The cell sample was then transferred without delay to a specialized laboratory, so that the sample remained not more than 38 hours at ambient temperature.
# On receipt, the cell sample from the biopsy was established in the form of an amplifiable 04PSL cell line according to a procedure well known to culture laboratories and those skilled in the art: using particularly the trypsin dispersion, the cells are once again diluted in replenished medium and so on until the number of cells sought is obtained. […] The 04PSL line cells were inoculated on glass coverslips in Petri dishes.
# (§2) The acquisition of the results was carried out using these coverslips on an immunofluorescence microscope (Olympus model). The reading was performed directly by counting the foci obtained with the marker pH2AX on at least 50 cells in G0/G1 for each point or using dedicated image analysis software (imageJ).
# In order to obtain results of sufficient statistical reliability to serve as a basis for diagnosis, 3 independent series of experiments were performed.
# (§3) In tables 3 and 4, “pH2AX” corresponds to the mean number of nuclear foci obtained with the marker pH2AX, 24 hours after contacting the cell sample with the chemical agent at the concentration C (NpH2AX(24 h, C)), and where “Micronuclei” corresponds to the mean number of micronuclei observed per 100 cells 24 hours after contacting the cell sample with the chemical agent at the concentration C(NMN(24 h, C)).
# 1BR3 (control cells) = assay: pH2AX foci immunofluorescence 24 h after contacting, 1BR3 control fibroblasts; assay type: cell-based, human; details: for pH2AX(24) + 2xSEM / pH2AX(24): 1BR3; for pH2AX(24) + 2xSEM: 24 hours; for pH2AX(24): 24 hours after contacting
# Method: (§4) In one embodiment, on receipt, the tissue sample (typically the biopsy) is established in the form of an amplifiable cell line without a viral or chemical transformation agent according to an ancillary procedure well known to culture laboratories, as underlined by the publication of Elkind et al. “The radiobiology of cultured mammalian cell”, Gordon and Breach (1967). Once the number of cells is sufficient (typically after 1 to 3 weeks), the first experiments are carried out using the process according to the invention. A cell sample is prepared: The cells are inoculated on glass coverslips in Petri dishes. A portion of these coverslips are contaminated with metals or pesticides or any other DNA-breaking chemical or biochemical agent at different concentrations. A further portion is not contaminated; it represents the spontaneous state. During contamination, the cells remain in the culture incubator at 37° C.
# (§5) For the contaminated cells, characteristics are acquired corresponding to the state after an incubation time with the DNA-breaking chemical or biochemical agent. Said characteristics are represented by foci corresponding to the marker pH2AX. The cells on glass coverslips are then fixed, lysed and hybridized. The following procedure, known per se (Bodgi et al, “A single formula to describe radiation-induced protein relocalization: towards a mathematical definition of individual radiosensitivity”, J Theor Biol. 21 p 333:135-45.2013):
# as §1
# (§6) The results are acquired using these coverslips on an immunofluorescence microscope (Olympus model for example). The reading may be direct (typically by counting the foci on at least 50 cells in G0/G1 for each point) or using dedicated image analysis software, or on an automated microscope; preferably the software or automated microscope methods are calibrated with manual determinations.
# (§7) Commercial 1BR3 and 149 BR control fibroblasts were amplified according to the recommendations of the supplier (SIGMA-ALDRICH) until the number of cells sought was obtained. After obtaining a sufficient number of cells (generally after one to 3 weeks), the first experiments were conducted using the process according to the invention. The cells were inoculated on glass coverslips in Petri dishes.
# as §2, with “(imageJ). […]” for “(imageJ).”
# 149BR (control cells) = assay: pH2AX foci immunofluorescence 24 h after contacting, 149BR control fibroblasts; assay type: cell-based, human; details: for pH2AX(24) + 2xSEM / pH2AX(24): 149BR; for pH2AX(24) + 2xSEM: 24 hours; for pH2AX(24): 24 hours after contacting
# Method: as §4, §5, §1, §6, §7
# as §2, with “(imageJ). […]” for “(imageJ).”
# 04PSL cells [5] = assay: Micronuclei per 100 cells (DAPI) 24 h after contacting, 04PSL; assay type: cell-based, human
# Method: as §4, §1
# Counterstaining with DAPI (a DNA marker known to those skilled in the art) makes it possible to locate the nucleus to situate the cytoplasmic or nuclear location to quantify the micronuclei, which are complementary cell markers to the data on the foci.
# The tables hereinafter summarize the results of numerous experiments which were carried out as described in the “Detailed description” section above.
# as §3
smiles,measurement,setting,value
"[Na+].[Na+].[O]=[Cr](=[O])([O-])[O-] [Chromium, Na2CrO4]","Cases of poisoning, concentration in tap water (estimated)",humans exposed; Hinkley USA,concentration in tap water was estimated at 23 Nm
same,"Cases of poisoning, concentration in well water",humans exposed; Hinkley USA,1.19 g/L
same,"Cases of poisoning, concentration in well water, equivalent",humans exposed; Hinkley USA,4.6 mM
same,Reference concentration Cref,[1],0.003 µM
same,Prediction based on algorithm: concentration above which “Group III” risk,[1],predicted above 30 nM
O=[N+]([O-])[O-].O=[N+]([O-])[O-].[Pb+2] [Pb(NO3)2],Micronuclei,HMEC cells [2]; 10 μM,0 per 100 cells
same,Micronuclei,HMEC cells [2]; 30 μM,7 per 100 cells
same,Micronuclei,HMEC cells [2]; 100 μM,12 per 100 cells
same,Micronuclei,HMEC cells [2]; 300 μM,20 per 100 cells
same,Micronuclei,HMEC cells [2]; 1000 μM,10 per 100 cells
same,"Onset of signs of saturnism, concentration in blood",humans exposed; clinical effects observed,Onset of signs of saturnism above 100 μg/l of μg/l of blood
same,"Onset of signs of saturnism, corresponding concentration","humans exposed; clinical effects observed, corresponding to 100 μg/l of blood",blood corresponding to approximately 2 μM
same,pH2AX,HMEC cells [3]; 10 μM,4 foci
same,pH2AX,HMEC cells [3]; 30 μM,7.5 foci
same,pH2AX,HMEC cells [3]; 100 μM,15 foci
same,pH2AX,HMEC cells [3]; 300 μM,21 foci
same,Reference concentration Cref,[1]; determined from data of table 4,< 1 µM
same,Reference concentration Cref,"[1]; determined from data of table 4, listed as Lead",<1 µM
same,Prediction based on algorithm: concentration above which “Group III” risk,[1],> 30 µM
O=C(O)CNCP(=O)(O)O [glyphosate],pH2AX,04PSL cells [4]; 3 μM,1.7 foci
same,pH2AX,04PSL cells [4]; 10 μM,1.9 foci
same,pH2AX,04PSL cells [4]; 30 μM,4.8 foci
same,pH2AX,04PSL cells [4]; 100 μM,6.5 foci
same,pH2AX,04PSL cells [4]; 300 μM,8.7 foci
same,pH2AX(24) + 2xSEM,04PSL cells [4]; glyphosate 3 μM,1.972 foci
same,pH2AX(24 h),04PSL cells [4]; glyphosate 3 μM,1.7 foci
same,pH2AX(24) + 2xSEM,04PSL cells [4]; glyphosate 10 μM,2.088 foci
same,pH2AX(24 h),04PSL cells [4]; glyphosate 10 μM,1.8 foci
same,pH2AX(24) + 2xSEM,04PSL cells [4]; glyphosate 30 μM,4.756 foci
same,pH2AX(24 h),04PSL cells [4]; glyphosate 30 μM,4.1 foci
same,pH2AX(24) + 2xSEM,04PSL cells [4]; glyphosate 100 μM,6.96 foci
same,pH2AX(24 h),04PSL cells [4]; glyphosate 100 μM,6 foci
same,pH2AX(24) + 2xSEM,04PSL cells [4]; glyphosate 300 μM,9.744 foci
same,pH2AX(24 h),04PSL cells [4]; glyphosate 300 μM,8.4 foci
same,number of pH2AX foci,"04PSL cells [4]; glyphosate concentration of 100 μM, 24 h",approximately 7 foci
same,pH2AX(24) + 2xSEM,1BR3 (control cells); glyphosate 3 μM,1.856 foci
same,pH2AX(24),1BR3 (control cells); glyphosate 3 μM,1.6 foci
same,pH2AX(24) + 2xSEM,1BR3 (control cells); glyphosate 10 μM,1.856 foci
same,pH2AX(24),1BR3 (control cells); glyphosate 10 μM,1.6 foci
same,pH2AX(24) + 2xSEM,1BR3 (control cells); glyphosate 30 μM,2.204 foci
same,pH2AX(24),1BR3 (control cells); glyphosate 30 μM,1.9 foci
same,pH2AX(24) + 2xSEM,1BR3 (control cells); glyphosate 100 μM,2.32 foci
same,pH2AX(24),1BR3 (control cells); glyphosate 100 μM,2 foci
same,pH2AX(24) + 2xSEM,1BR3 (control cells); glyphosate 300 μM,2.668 foci
same,pH2AX(24),1BR3 (control cells); glyphosate 300 μM,2.3 foci
same,"reference concentration Cref defined by NpH2AX(24 h, Cref)+2σ=2",1BR3 (control cells); control cell line 1BR3,100 µM
same,pH2AX(24) + 2xSEM,149BR (control cells); glyphosate 3 μM,0.928 foci
same,pH2AX(24),149BR (control cells); glyphosate 3 μM,0.8 foci
same,pH2AX(24) + 2xSEM,149BR (control cells); glyphosate 10 μM,1.16 foci
same,pH2AX(24),149BR (control cells); glyphosate 10 μM,1 foci
same,pH2AX(24) + 2xSEM,149BR (control cells); glyphosate 30 μM,1.74 foci
same,pH2AX(24),149BR (control cells); glyphosate 30 μM,1.5 foci
same,pH2AX(24) + 2xSEM,149BR (control cells); glyphosate 100 μM,2.088 foci
same,pH2AX(24),149BR (control cells); glyphosate 100 μM,1.8 foci
same,pH2AX(24) + 2xSEM,149BR (control cells); glyphosate 300 μM,3.48 foci
same,pH2AX(24),149BR (control cells); glyphosate 300 μM,3 foci
same,"reference concentration Cref defined by NpH2AX(24 h, Cref)+2σ=2",149BR (control cells); control cell line 149BR,100 µM
same,Micronuclei,04PSL cells [5]; 3 μM,6 per 100 cells
same,Micronuclei,04PSL cells [5]; 10 μM,4 per 100 cells
same,Micronuclei,04PSL cells [5]; 30 μM,10 per 100 cells
same,Micronuclei,04PSL cells [5]; 150 μM,12 per 100 cells
same,Micronuclei,04PSL cells [5]; 300 μM,14 per 100 cells
